5 compounds from patent US20220412975A1, “CHARACTERIZING MODULATORS OF ADAMTS-7 AND ADAMTS-12” (The Broad Institute, Inc., priority 2019, published 2022) can be followed below.

One assay addresses T1, ADAMTS-7 (Homo sapiens, UniProt Q9UKP4, A119V/A123T/A127T/A171V/A193G/A200T/A28V/A36P/A42G/A66V/A78S/A97T/D77A/DEL186-188/DEL228-233/E133D/E190K/E213K/E83Q/G114S/G115N/G117S/G196D/G27H/H100Y/H124S/H234Q/K153R/L143F/L192S/L20I/P189H/P201S/P29L/P33S/P79S/Q99P/R118N/R122Q/R174Q/R195Q/R215Q/R218H/R35L/R75A/R76Q/R87Q/R92L/S170E/S199R/S202G/S214H/T110I/T125V/V182M/V208G/V74A/W225K/Y209S).
T1 construct: rat ADAMTS-7 signal peptide + prodomain (rat 1-217), fusion partner (N); 2xStrep tag (C); 6xHis tag (C); made in house; host or cells: Expi293 cells
The assay can be described thus: ADAMTS-7 enzymatic activity FRET assay, testing of inhibitory compounds. It is filed as biochemical. The protocol:
Purified recombinant ADAMTS-7 (as of SEQ ID NO: 1 or SEQ ID NO: 2) was diluted in reaction buffer (20 mM HEPES pH 8.0, 150 mM NaCl, 5 mM CaCl2, 0.004% Brij, 10 μM ZnCl2) for a concentration of approximately 20 nM. 25 μl of the solution were transferred into each well of a 384-well white microtiter plate (Greiner Bio-One 781075) and 1 μl test compound solution (modulator/inhibitor dissolved in DMSO, at the corresponding concentration) or pure DMSO as a control were added per well. […] Amino acids […] are derived from Thrombospondin-1 sequence (275-289). An additional carboxyl glutamic acid was added after the QXL520 quencher to increase substrate solubility. The microtiter plate was incubated for 120 min at the temperature of 32° C. The increase of fluorescence intensity was measured in appropriate fluorescence plate reader (e.g. TECAN Ultra) using excitation wavelength of 485 nm and emission wavelength of 520 nm. IC50 values were calculated from percentage of inhibition of ADAMTS-7 activity as a function of test compound concentration. IC50 values derived using functional ADAMTS-7 according to SEQ ID NO: 1 or SEQ ID NO: 2, respectively, were not distinguishable, both laying within the experimental error.
(§1) The assays to determine the IC50 for ADAMTS inhibition were performed as described earlier herein.

The next assay has as its target T2, ADAMTS-4 (Homo sapiens, UniProt O75173).
T2 construct: purchased R&D 4307-AD
T2 sequence (O75173 213-837): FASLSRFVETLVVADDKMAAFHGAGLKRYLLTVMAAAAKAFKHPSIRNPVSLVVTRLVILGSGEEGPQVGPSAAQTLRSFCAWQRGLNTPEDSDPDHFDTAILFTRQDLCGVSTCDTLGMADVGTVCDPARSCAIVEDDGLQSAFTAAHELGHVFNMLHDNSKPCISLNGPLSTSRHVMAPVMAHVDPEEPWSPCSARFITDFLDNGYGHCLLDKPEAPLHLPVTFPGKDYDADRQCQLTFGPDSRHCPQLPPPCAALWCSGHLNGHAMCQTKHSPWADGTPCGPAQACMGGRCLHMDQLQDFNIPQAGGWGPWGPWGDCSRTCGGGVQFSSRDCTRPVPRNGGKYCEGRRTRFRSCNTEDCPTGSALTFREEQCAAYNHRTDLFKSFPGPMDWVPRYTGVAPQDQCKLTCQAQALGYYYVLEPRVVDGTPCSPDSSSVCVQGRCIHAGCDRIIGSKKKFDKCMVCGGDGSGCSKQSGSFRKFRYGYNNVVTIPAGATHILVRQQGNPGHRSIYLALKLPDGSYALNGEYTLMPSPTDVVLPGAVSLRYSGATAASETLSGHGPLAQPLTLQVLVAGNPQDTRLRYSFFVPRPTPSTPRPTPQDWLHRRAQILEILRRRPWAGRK
The assay can be described thus: Selectivity FRET assay ADAMTS4. The assay is classed as biochemical. The conditions noted are these: ADAMTS4 50 nM, Dabcyl-[…]-Glu(Edans)-NH2 1 μM, 120 min, 32° C. The protocol:
The respective enzyme (see Table 4 below) was diluted in reaction buffer (50 mM Tris, 2.5 μM ZnCl2, 0.05% BSA, 0.001% Brij, pH 7.5 for ADAM17; 50 mM Tris 7.5, 150 mM NaCl, 10 mM CaCl2, 0.05% Brij for all other enzymes) to the respective concentration and 25 μl were transferred into each well of a 384-well white microtiter plate (Greiner Bio One 781075). 1 μl test compound solution (dissolved in DMSO, at the corresponding concentration) or pure DMSO as a control was added per well. The enzymatic reaction was initiated by addition of 25 μl of the respective concentration of the respective FRET substrate (see Table 4 below) in reaction buffer. The microtiter plate was incubated for 120 min at the temperature of 32° C. The increase of fluorescence intensity was measured in appropriate fluorescence plate reader (e.g. TECAN Ultra) using the respective wavelengths for excitation and emission. IC50 values were calculated from percentage of inhibition of enzyme activity as a function of test compound concentration.
Table 4. Assay conditions for the evaluation of the selectivity of ADAMTS-7 modulators. Abbreviations: Dabcyl: 4-((4-(dimethylamino)phenyl)azo)benzoic acid; Glu(Edans): L-glutamic acid-γ-[2-(1-sulfonyl-5-naphthyl)-aminoethylamide]; Mca: (7-Methoxycoumarin-4-yl)acetyl; Dap(Dnp): (2S)-3-(2,4-dinitroanilino)-2-(9H-fluoren-9-ylmethoxycarbonylamino)propanoic acid; Dpa: N-3-(2, 4-Dinitrophenyl)-L-2,3-diaminopropionyl.
as §1

T1 sequence (Q9UKP4 with tags, fused parts or gaps with the stated changes): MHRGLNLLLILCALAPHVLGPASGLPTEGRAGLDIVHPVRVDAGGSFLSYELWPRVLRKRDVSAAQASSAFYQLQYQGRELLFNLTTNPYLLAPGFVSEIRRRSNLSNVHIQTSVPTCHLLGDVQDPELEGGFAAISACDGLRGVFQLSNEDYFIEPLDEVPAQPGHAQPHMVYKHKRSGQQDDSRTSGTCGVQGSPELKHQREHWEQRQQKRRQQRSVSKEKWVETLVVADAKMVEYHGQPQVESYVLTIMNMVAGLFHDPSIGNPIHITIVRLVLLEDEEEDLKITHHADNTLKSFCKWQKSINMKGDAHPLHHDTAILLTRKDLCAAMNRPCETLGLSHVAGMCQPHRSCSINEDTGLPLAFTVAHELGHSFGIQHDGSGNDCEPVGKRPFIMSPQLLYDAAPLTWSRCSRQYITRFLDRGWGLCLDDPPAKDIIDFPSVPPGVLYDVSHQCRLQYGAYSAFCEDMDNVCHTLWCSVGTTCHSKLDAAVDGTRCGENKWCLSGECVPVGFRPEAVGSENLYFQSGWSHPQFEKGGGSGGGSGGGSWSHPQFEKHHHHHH

On ADAMTS-7, `CC(C)(C)C1(CNC(=O)c2cnc(-c3ccccc3)o2)NC(=O)NC1=O` (racemic) [Example 12.4, rac-{[4-tert-butyl-2,5-dioxoimidazolidin-4-yl]methyl}-2-phenyl-1,3-oxazole-5-carboxamide] returned an IC50 of 480 nM.

For `O=C1NC(=O)[C@](CNC(=O)c2cnn(-c3ccc(F)cn3)n2)(C2CC2)N1` [Example 12.1, N-{[(4R)-4-cyclopropyl-2,5-dioxoimidazolidin-4-yl]methyl}-2-(5-fluoropyridin-2-yl)-2H-1,2,3-triazole-4-carboxamide], the figures for the IC50 against ADAMTS-7 and against ADAMTS-4 were 140 nM and 4750 nM, respectively.

In the case of `O=C1NC(=O)[C@](CNC(=O)c2cnn(-c3cnccn3)n2)(C2CC2)N1` [Example 12.2, N-{[(4R)-4-cyclopropyl-2,5-dioxoimidazolidin-4-yl]methyl}-2-(pyrazin-2-yl)-2H-1,2,3-triazole-4-carboxamide], the IC50 at ADAMTS-7 is 355 nM; on ADAMTS-4, 24000 nM.

In turn, `O=C1NC(=O)[C@](CNC(=O)c2cc(-c3cnn(CC4CC4)c3)no2)(C2CC2)N1` [Example 12.3, N-{[(4R)-4-cyclopropyl-2,5-dioxoimidazolidin-4-yl]methyl}-3-[1-(cyclopropylmethyl)-1H-pyrazol-4-yl]-1,2-oxazole-5-carboxamide] yielded an IC50 against ADAMTS-7 of 550 nM.

Turning to `Cn1cc(-c2cc(C(=O)NC[C@@]3(C4CC4)NC(=O)NC3=O)on2)cn1` [Example 12.5, N-{[(4R)-4-cyclopropyl-2,5-dioxoimidazolidin-4-yl]methyl}-3-(1-methyl-1H-pyrazol-4-yl)-1,2-oxazole-5-carboxamide], the IC50 on ADAMTS-7 came out at 52 nM; on ADAMTS-4, 4690 nM.

In general, IC50 refers to the concentration needed to halve the response being measured. A high value points to weaker potency in that assay.
